In patent publication US20150328220A1, “METHODS OF TREATING CHRONIC KIDNEY DISEASE CHARACTERIZED BY MACROALBUMINURIA” (Concert Pharmaceuticals, Inc., priority 2014, published 2015):

Experiments:
Assay type in all cases: in vivo, human
[1] = system: plasma collagen IV; assay: Phase 2 placebo-controlled clinical trial, 48 weeks: plasma collagen IV (fibrotic biomarker); settings: week 48 (FIG. 3)
Experimental: (§1) A Phase 2 placebo-controlled clinical trial of Compound (V) was conducted in patients with type 2 diabetic kidney disease and macroalbuminuria. All patients enrolled in the clinical trial were concurrently treated with angiotensin modulators. The purpose of the trial was to compare Compound (V) to placebo in terms of safety and efficacy with respect to measures of renal function such as UACR, serum creatinine levels, and estimated glomerular filtration rate.
(§2) The clinical trial consists of three parts, two of which were completed and a third part that is on-going. Part 1 was a double-blind, parallel, two-arm, placebo-controlled study evaluating the safety and efficacy of 600 mg of Compound (V) twice daily for 24 weeks. 182 patients were enrolled in this first part of the trial and 151 patients completed Part 1. Part 2 was a blinded 24-week extension study in which all patients who completed Part 1 were eligible to continue receiving 600 mg of Compound (V) or placebo twice daily. 143 patients were enrolled in this part of the clinical trial and have completed dosing. 123 of the 143 patients that were enrolled in Part 2 of the clinical trial completed Part 2. The combined 48 weeks of data from Parts 1 and 2 of the clinical trial have been analyzed. 102 patients enrolled in Part 3 which is a 48 week open-label extension study that is on-going. […]

[2] = system: urinary fibronectin; assay: Phase 2 placebo-controlled clinical trial, 48 weeks: urinary fibronectin (fibrotic biomarker)
Experimental: as §1, §2

[3] = system: patients with type 2 diabetic kidney disease and macroalbuminuria; assay: Phase 2 placebo-controlled clinical trial, 48 weeks: serum creatinine levels; settings: for patients who experienced a 50% or greater increase in serum creatinine levels: after 48 weeks
Experimental: as §1
The clinical trial consists of three parts, two of which were completed and a third part that is on-going. Part 1 was a double-blind, parallel, two-arm, placebo-controlled study evaluating the safety and efficacy of 600 mg of Compound (V) twice daily for 24 weeks. 182 patients were enrolled in this first part of the trial and 151 patients completed Part 1. Part 2 was a blinded 24-week extension study in which all patients who completed Part 1 were eligible to continue receiving 600 mg of Compound (V) or placebo twice daily. 143 patients were enrolled in this part of the clinical trial and have completed dosing. 123 of the 143 patients that were enrolled in Part 2 of the clinical trial completed Part 2. The combined 48 weeks of data from Parts 1 and 2 of the clinical trial have been analyzed. 102 patients enrolled in Part 3 which is a 48 week open-label extension study that is on-going. All patients who completed Part 2 were eligible to receive 600 mg of Compound (V) twice daily.
The key criteria for patients to be included in the clinical trial were (a) eGFR from 23 to 89 mL/min/1.73 m^2, a measure of kidney function which indicates mild to moderately severe type 2 diabetic kidney disease; (b) having been on a stable angiotensin modulation regimen for a minimum of four weeks prior to initiating screening and nine weeks prior to initiating dosing; (c) blood pressure less than or equal to 145/90 mm Hg; (d) glycosylated hemoglobin A1c (HbA1c) less than or equal to 10.5%, and (e) UACR greater than or equal to 200 mg/g in male patients and 300 mg/g in female patients, ratios of albumin to creatinine that are indicative of substantial kidney damage in men and women, but not more than 5,000 mg/g, a ratio indicative of severe kidney disease.

`[2H]C([2H])([2H])[C@H](O)C([2H])([2H])CCCn1c(=O)c2c(ncn2C)n(C)c1=O` [Compound (V)] was tested, and the “less plasma collagen IV versus placebo” value [1] was 18%, the “less urine fibronectin versus placebo” value ([2]; week 48, overall population (FIG. 1)) was 59% and the “decrease in urine fibronectin relative to placebo” value ([2]; week 48, subpopulation having UACR greater than 850 mg/g, p<0.01 (FIG. 2)) was 73%. The “increase in mean serum creatinine level over the 48 weeks of treatment” value ([3]; 600 mg twice daily, 48 weeks, 65 patients, overall population, preliminary analysis) was 0.13 mg/dL, the “patients who experienced a 50% or greater increase in serum creatinine levels” value ([3]; overall population, one out of 65 patients, p=0.026 vs placebo, post-hoc) was 1.5% and the “patients who experienced a 50% or greater increase in serum creatinine levels” value ([3]; subpopulation having UACR greater than 850 mg/g, one out of 31 patients, p<0.0409 vs placebo) was 3.1%. For the same compound, the “improvement in serum creatinine increase as compared to placebo” value ([3]; at 48 weeks, 600 mg twice daily, p=0.057 two-tailed) was 38%.
